Data reported in patent publication US20260217701A1, “SELECTIVE BET INHIBITORS AND USES THEREOF” (Tay Therapeutics Limited, priority 2022, published 2026).

Tests used:
Format in all cases: in vivo, C57BI/6J mice
[1] = tested on: idiopathic pulmonary fibrosis (bleomycin); test: Bleomycin IPF model: functional lung volume by micro-CT; parameters: Functional Lung Volume, Mean: unit not given here; details: Day 21
Experimental: Animals were acclimated for two weeks prior to study initiation, and were randomized into the experimental groups outlined in Table 32. Intratracheal (IT) administration of Bleo or PBS control was conducted at the start of the study (Day 0). […] Following administration of Bleo, animals (n=10/group) were included in the study if they met the following guidelines on Day 7: […] Micro-CT imaging was also performed on Day 7 to determine relative fibrosis and on Day 21. […] Images were acquired with a respiratory gated technique with the following parameters: X-ray tube voltage: 90 KV; X-ray tube current: 88 μA; total scan time: 4 minutes. The system was calibrated monthly with standard phantoms for noise, uniformity, low contrast, and resolution to ensure consistency.

[2] = tested on: idiopathic pulmonary fibrosis (bleomycin); test: Bleomycin IPF model: lung histology, Masson's Trichrome with Ashcroft scoring
Experimental: Animals were acclimated for two weeks prior to study initiation, and were randomized into the experimental groups outlined in Table 32. Intratracheal (IT) administration of Bleo or PBS control was conducted at the start of the study (Day 0). […] Following administration of Bleo, animals (n=10/group) were included in the study if they met the following guidelines on Day 7: […] A resection of the right lung was weighed and homogenized to determine total hydroxyproline levels by colorimetric assay, and the remaining lung lysate was saved for future analyses. For the morphological assessments, the left lung was inflation-fixed at 25 cm of water pressure with 4% paraformaldehyde in PBS for 1 minute, processed, and then sectioned. Morphological analysis of the lung was conducted using H&E-stained slides. Additional histologic stains for morphological analyses included Masson's Trichrome staining with Ashcroft scoring to determine severity of fibrosis.

hydroxyproline = test: Bleomycin IPF model: hydroxyproline content in lung lysates; parameters: Hydroxyproline Levels, Mean: unit not given here; details: Bleo + Pirfenidone (300 mg/kg) OG QOD from D7
Experimental: (§1) Male C57BI/6J mice, aged 12 weeks with an approximate weight of 25-30 g were obtained from Jackson Laboratories (Bar Harbor, ME). Animals were acclimated for two weeks prior to study initiation, and were randomized into the experimental groups outlined in Table 32.
(§2) Intratracheal (IT) administration of Bleo or PBS control was conducted at the start of the study (Day 0). […] Animals were weighed on Day 0, and indexed boluses of PBS control (Group 1) or Bleo (Groups 2-6) were delivered by IT administration.
(§3) Following administration of Bleo, animals (n=10/group) were included in the study if they met the following guidelines on Day 7: (1) a predictable 5% loss in body weight, and (2) the presence of fibrotic pulmonary lesions, detected by micro-CT imaging. 10 animals from Group 1 additionally proceeded as controls. Animals that continued in the study on Day 7 received an oral gavage (OG) administration of PBS, Compound A (1 mg/kg, 3 mg/kg, 10 mg/kg), or Pirfenidone (300 mg/kg), as outlined in Table 31 in 25 μL boluses every other day (QOD), starting on Day 7. Compound A was formulated in 5% (v/v) DMSO/15% (v/v) PEG 400/80% (v/v) E-TPGS in purified water.
Animals were euthanized on Day 21 following Micro-CT imaging, and the right lung was collected for biochemical analysis, and the left lung was inflation-fixed for morphological assessments. A resection of the right lung was weighed and homogenized to determine total hydroxyproline levels by colorimetric assay, and the remaining lung lysate was saved for future analyses.

[3] = Bleomycin IPF model: body weight and mortality; parameters: Mean Body Weight Change: unit not given here; details: for Mean Body Weight Change: Bleo + Pirfenidone (300 mg/kg) OG QOD from D7
Experimental: as §1, §2
as §3, with “water. […]” for “water.”

[4] = tested on: idiopathic pulmonary fibrosis (bleomycin); test: Bleomycin IPF model: oxygen saturation (pulse oximetry); details: Bleo + Pirfenidone (300 mg/kg) OG QOD from D7
Experimental: as §1, §2, §3
Body weights were obtained at Day 0 at the start of the study, and again at Day 7 to determine if an animal continued in the study. Body weight was measured daily from Day 7 until Day 21, and oxygen saturation was measured by a pulse oximetry (MouseOx) system QOD from Day 7 until study completion on Day 21, and results were plotted and analyzed by Kaplan-Meier plots.

[5] = Bleo + Pirfenidone (300 mg/kg) OG QOD from D7

## Cc1ccc(=O)n(-c2ccccc2)c1 [Pirfenidone, reference compound]
[1]; [5]
  Functional Lung Volume, Mean: 445.7025
[1]; Group 6, Pirfenidone 300 mg/kg
  Functional lung volume relative to Group 2: significantly increased
[2]; [5]
  Ashcroft Scoring, Max: 6
  Ashcroft Scoring, Mean: 5.125
  Ashcroft Scoring, Min: 4
[2]; Day 21, Group 6, 300 mg/kg
  Ashcroft scores relative to IPF control group: significantly reduced Ashcroft scores
[2]; Group 5 (Compound A 10) and Group 6 (Pirfenidone)
  Fibrosis in lung tissue (Masson's Trichrome) compared to Group 2 (Bleo+Saline): qualitatively diminished
hydroxyproline
  Hydroxyproline Levels, Mean: 0.055
[3]; Day 1
  Mean Body Weight Change: 2.308
[3]; Day 2
  Mean Body Weight Change: −0.484
[3]; Day 3
  Mean Body Weight Change: 0.051
[3]; Day 4
  Mean Body Weight Change: 4.604
[3]; Day 5
  Mean Body Weight Change: −5.992
[3]; Day 6
  Mean Body Weight Change: −9.221
[3]; Day 7
  Mean Body Weight Change: −11.372
[3]; Day 8
  Mean Body Weight Change: −14.446
[3]; Day 9
  Mean Body Weight Change: −14.694
[3]; Day 10
  Mean Body Weight Change: −15.574
[3]; Day 11
  Mean Body Weight Change: −14.209
[3]; Day 12
  Mean Body Weight Change: −13.437
[3]; Day 13
  Mean Body Weight Change: −12.258
[3]; Day 14
  Mean Body Weight Change: −12.644
[3]; Day 15
  Mean Body Weight Change: −13.627
[3]; Day 16
  Mean Body Weight Change: −13.391
[3]; Day 17
  Mean Body Weight Change: −13.251
[3]; Day 18
  Mean Body Weight Change: −15.138
[3]; Day 19
  Mean Body Weight Change: −14.921
[3]; Day 20
  Mean Body Weight Change: −15.674
[3]; Day 21
  Mean Body Weight Change: −15.557
[3]; Compound A (all doses tested), Pirfenidone (300 mg/kg)
  Body weight compared with Bleo+Saline treated animals: No significant difference
[4]; Day 7
  Mean Oxygen Saturation: 81.08
[4]; Day 9
  Mean Oxygen Saturation: 84.55
[4]; Day 11
  Mean Oxygen Saturation: 83.32
[4]; Day 13
  Mean Oxygen Saturation: 84.28
[4]; Day 15
  Mean Oxygen Saturation: 87.03
[4]; Day 17
  Mean Oxygen Saturation: 87.08
[4]; Day 19
  Mean Oxygen Saturation: 89.13
[4]; Day 21
  Mean Oxygen Saturation: 89.18
